In US20230190717A1, “P38 GAMMA INHIBITORS AND METHOD OF USE THEREOF” (City of Hope, priority 2017, published 2023):

Assays:
Format in all cases: cell-based, human
RPMI-8226 = test: NCI-60 cytotoxicity, RPMI-8226; details: RPMI-8226 (MM), 72 h
Procedure: (§1) Briefly, human NCI-60 cancer cell lines were counted with a Vi-CELL Cell Viability Analyzer (Beckman Coulter), resuspended in RPMI-1640 medium containing 10% FBS and 1% penicillin/streptomycin and dispensed in wells of 96-well microplates (3000 cells per well for solid tumor and 5000 per well for blood tumor cells) using an epMotion 5075 liquid handler (Eppendorf) under a sterile condition, followed by incubation overnight at 37° C. in 5% (v/v) CO2. Cells were exposed to compounds in a dose-dependent manner for 72 h. An MTS dye (20 uL per well) was added to each well. Cell viability was determined by tetrazolium conversion to its […] dye. […] Each experiment was performed in duplicate. […] H9 cells are more sensitive to drugs, therefore instead of 72 hours, we choose 48 hour the incubation time for H9 cells.
(§2) IC50 values were determined using […] software (Biosoft).

T-47D = test: NCI-60 cytotoxicity, T-47D; details: T-47D (Breast), 72 h
Procedure: as §1, §2

HCC-2998 = test: NCI-60 cytotoxicity, HCC-2998; details: HCC-2998 (Colon), 72 h
Procedure: as §1, §2

SF-295 = test: NCI-60 cytotoxicity, SF-295; details: SF-295 (CNS), 72 h
Procedure: as §1, §2

NCI-H23 = test: NCI-60 cytotoxicity, NCI-H23; details: NCI-H23 (Lung), 72 h
Procedure: as §1, §2

ACHN = test: NCI-60 cytotoxicity, ACHN; details: ACHN (Renal), 72 h
Procedure: as §1, §2

MDA-MB-468 = test: NCI-60 cytotoxicity, MDA-MB-468; details: MDA-MB-468 (Breast), 72 h
Procedure: as §1, §2

DU-145 = test: NCI-60 cytotoxicity, DU-145; details: DU-145 (Prostate), 72 h
Procedure: as §1, §2

SK-MEL-2 = test: NCI-60 cytotoxicity, SK-MEL-2; details: SK-MEL-2 (Melanoma), 72 h
Procedure: as §1, §2

SF-539 = test: NCI-60 cytotoxicity, SF-539; details: SF-539 (CNS), 72 h
Procedure: as §1, §2

SF-268 = test: NCI-60 cytotoxicity, SF-268; details: SF-268 (CNS), 72 h
Procedure: as §1, §2

MDA-MB-435 = test: NCI-60 cytotoxicity, MDA-MB-435; details: MDA-MB-435 (Melanoma), 72 h
Procedure: as §1, §2

U251 = test: NCI-60 cytotoxicity, U251; details: U251 (CNS), 72 h
Procedure: as §1, §2

OVCAR-3 = test: NCI-60 cytotoxicity, OVCAR-3; details: OVCAR-3 (Ovarian), 72 h
Procedure: as §1, §2

RXF 393 = test: NCI-60 cytotoxicity, RXF 393; details: RXF 393 (Renal), 72 h
Procedure: as §1, §2

HCT-116 = test: NCI-60 cytotoxicity, HCT-116; details: HCT-116 (Colon), 72 h
Procedure: as §1, §2

KM12 = test: NCI-60 cytotoxicity, KM12; details: KM12 (Colon), 72 h
Procedure: as §1, §2

HCT-15 = test: NCI-60 cytotoxicity, HCT-15; details: HCT-15 (Colon), 72 h
Procedure: as §1, §2

786-0 = test: NCI-60 cytotoxicity, 786-0; details: 786-0 (Renal), 72 h
Procedure: as §1, §2

NCI-H322M = test: NCI-60 cytotoxicity, NCI-H322M; details: NCI-H322M (Lung), 72 h
Procedure: as §1, §2

OVCAR-4 = test: NCI-60 cytotoxicity, OVCAR-4; details: OVCAR-4 (Ovarian), 72 h
Procedure: as §1, §2

IGR-OV1 = test: NCI-60 cytotoxicity, IGR-OV1; details: IGR-OV1 (Ovarian), 72 h
Procedure: as §1, §2

OVCAR-5 = test: NCI-60 cytotoxicity, OVCAR-5; details: OVCAR-5 (Ovarian), 72 h
Procedure: as §1, §2

PC-3 = test: NCI-60 cytotoxicity, PC-3; details: PC-3 (Prostate), 72 h
Procedure: as §1, §2

OVCAR-8 = test: NCI-60 cytotoxicity, OVCAR-8; details: OVCAR-8 (Ovarian), 72 h
Procedure: as §1, §2

NCI/ADR-RES = test: NCI-60 cytotoxicity, NCI/ADR-RES; details: NCI/ADR-RES (Ovarian), 72 h
Procedure: as §1, §2

UACC257 = test: NCI-60 cytotoxicity, UACC257; details: UACC257 (Melanoma), 72 h
Procedure: as §1, §2

HOP-92 = test: NCI-60 cytotoxicity, HOP-92; details: HOP-92 (Lung), 72 h
Procedure: as §1, §2

UO31 = test: NCI-60 cytotoxicity, UO31; details: UO31 (Renal), 72 h
Procedure: as §1, §2

MALME-3M = test: NCI-60 cytotoxicity, MALME-3M; details: MALME-3M (Melanoma), 72 h
Procedure: as §1, §2

SNB-19 = test: NCI-60 cytotoxicity, SNB-19; details: SNB-19 (CNS), 72 h
Procedure: as §1, §2

UACC-62 = test: NCI-60 cytotoxicity, UACC-62; details: UACC-62 (Melanoma), 72 h
Procedure: as §1, §2

K-562 = test: NCI-60 cytotoxicity, K-562; details: K-562 (CML), 72 h
Procedure: as §1, §2

Cc1ccc([N+](=O)[O-])cc1S(=O)(=O)N(C)/N=C/c1cnc2ccc(Br)cn12 [Compound 1]
IC50 (RPMI-8226; Homo sapiens): 0.077 µM | IC50 (T-47D; Homo sapiens, T47D): > 10 µM | IC50 (HCC-2998; Homo sapiens): > 10 µM | IC50 (SF-295; Homo sapiens): 0.141 µM | IC50 (NCI-H23; Homo sapiens): > 10 µM | IC50 (ACHN; Homo sapiens): 0.092 µM | IC50 (MDA-MB-468; Homo sapiens): 0.103 µM | IC50 (DU-145; Homo sapiens): 0.001 µM | IC50 (SK-MEL-2; Homo sapiens): 0.317 µM | IC50 (SF-539; Homo sapiens): 0.177 µM | IC50 (SF-268; Homo sapiens): 2.23 µM | IC50 (MDA-MB-435; Homo sapiens): > 10 µM | IC50 (U251; Homo sapiens, U-251): 0.253 µM | IC50 (OVCAR-3; Homo sapiens): 0.071 µM | IC50 (RXF 393; Homo sapiens): 0.08 µM | IC50 (HCT-116; Homo sapiens): 0.001 µM | IC50 (KM12; Homo sapiens): 0.006 µM | IC50 (HCT-15; Homo sapiens): 0.008 µM | IC50 (786-0; Homo sapiens): 0.008 µM | IC50 (NCI-H322M; Homo sapiens): 1.5 µM | IC50 (OVCAR-4; Homo sapiens): 0.403 µM | IC50 (IGR-OV1; Homo sapiens, IGROV-1): 0.251 µM | IC50 (OVCAR-5; Homo sapiens): 0.04 µM | IC50 (PC-3; Homo sapiens): 0.02 µM | IC50 (OVCAR-8; Homo sapiens): 0.059 µM | IC50 (NCI/ADR-RES; Homo sapiens): 0.024 µM | IC50 (UACC257; Homo sapiens, UACC-257): 2.32 µM | IC50 (HOP-92; Homo sapiens): 0.094 µM | IC50 (UO31; Homo sapiens, UO-31): 0.115 µM | IC50 (MALME-3M; Homo sapiens): 0.116 µM | IC50 (SNB-19; Homo sapiens): 0.385 µM | IC50 (UACC-62; Homo sapiens): 0.362 µM | IC50 (K-562; Homo sapiens, K562): 0.416 µM

O=C1NC(=NCc2cccs2)S/C1=C\c1ccc2ncccc2c1 [Compound A10]
IC50 (RPMI-8226): 9 µM | IC50 (T-47D): 6.19 µM | IC50 (HCC-2998): > 10 µM | IC50 (SF-295): > 10 µM | IC50 (NCI-H23): > 10 µM | IC50 (ACHN): 4.46 µM | IC50 (MDA-MB-468): 6.97 µM | IC50 (DU-145): 1.38 µM | IC50 (SK-MEL-2): > 10 µM | IC50 (SF-539): 2.55 µM | IC50 (SF-268): > 10 µM | IC50 (MDA-MB-435): 6.6 µM | IC50 (U251): 1.92 µM | IC50 (OVCAR-3): > 10 µM | IC50 (RXF 393): > 10 µM | IC50 (HCT-116): 3.2 µM | IC50 (KM12): > 10 µM | IC50 (HCT-15): 3.84 µM | IC50 (786-0): 7.77 µM | IC50 (NCI-H322M): > 10 µM | IC50 (OVCAR-4): > 10 µM | IC50 (IGR-OV1): > 10 µM | IC50 (OVCAR-5): > 10 µM | IC50 (PC-3): > 10 µM | IC50 (OVCAR-8): > 10 µM | IC50 (NCI/ADR-RES): 3.67 µM | IC50 (UACC257): > 10 µM | IC50 (HOP-92): 6.04 µM | IC50 (UO31): > 10 µM | IC50 (MALME-3M): > 10 µM | IC50 (SNB-19): > 10 µM | IC50 (UACC-62): > 10 µM | IC50 (K-562): > 10 µM

O=C1NCCc2[nH]c(-c3ccncc3)cc21 [Compound A11]
IC50 (RPMI-8226): > 10 µM | IC50 (T-47D): > 10 µM | IC50 (HCC-2998): > 10 µM | IC50 (SF-295): 7.64 µM | IC50 (NCI-H23): > 10 µM | IC50 (ACHN): > 10 µM | IC50 (MDA-MB-468): 1.77 µM | IC50 (DU-145): 2.26 µM | IC50 (SK-MEL-2): > 10 µM | IC50 (SF-539): 3.68 µM | IC50 (SF-268): > 10 µM | IC50 (MDA-MB-435): > 10 µM | IC50 (U251): 4.57 µM | IC50 (OVCAR-3): 2.52 µM | IC50 (RXF 393): 3.47 µM | IC50 (HCT-116): 1.26 µM | IC50 (KM12): 2.28 µM | IC50 (HCT-15): 2.54 µM | IC50 (786-0): 9.3 µM | IC50 (NCI-H322M): > 10 µM | IC50 (OVCAR-4): > 10 µM | IC50 (IGR-OV1): > 10 µM | IC50 (OVCAR-5): 5.31 µM | IC50 (PC-3): 9.18 µM | IC50 (OVCAR-8): 3.6 µM | IC50 (NCI/ADR-RES): 1.44 µM | IC50 (UACC257): > 10 µM | IC50 (HOP-92): 6.4 µM | IC50 (UO31): 4.03 µM | IC50 (MALME-3M): 3.05 µM | IC50 (SNB-19): > 10 µM | IC50 (UACC-62): 6.12 µM | IC50 (K-562): > 10 µM
